Laboratory results published in patent US6774132B1, “Spirooxindole derivatives that act as analgesics” (AstraZeneca AB, priority 1999, dated 2004).

## CCCN1CCCC2(C1)NC(=O)c1ccccc12.Cl (stereo not shown)
  melting point: 110 to 112 °C
